Source: patent publication US20230218663A1, “COMPOSITIONS AND METHODS FOR TREATING A SARS-COV-2 INFECTION” (priority 2020, published 2023)
Like-named read-outs stand apart in the source and are kept apart here.

Experiments:
[1] = system: VeroE6 cells; test: Cell viability assay (CellTiterGlo), VeroE6; format: cell-based, African green monkey
Experimental: (§1) The CellTiterGlo® luminescent assay (Promega Corporation, Madison, Wis., USA) was performed to detect the cytotoxicity of the selected compounds as previously described^39. Briefly, VeroE6 cells (4×10^4 cells per well) and Caco2 cells (4×10^4 cells per well) were incubated with different concentrations of the individual compound in 96-well plates for 48 hrs, followed by the addition of the substrate and measurement of luminance 10 min later. Ridaura and Au(PEt3)Cl were dissolved in DMSO, and the final percentage of DMSO was kept at 1% in culture medium.

[2] = target: T1, SARS-CoV-2 PL^pro (Severe acute respiratory syndrome coronavirus 2, UniProt P0DTD1); test: Zinc release assay (FluoZin-3); format: binding
Experimental: The release of Zn^2+ from SARS-CoV-2 PL^pro upon bismuth drug exposure was perform by a previously described method with zinc-specific fluorophore FluoZin™-3 (Invitrogen/Life Technologies) (21). Briefly, SARS-CoV-2 PLpro (20 μM) was incubated with 0, 2, 5, 20 mol eq. Bi^3+ (as CBS), for 180 min at room temperature, followed by the addition of FluoZin-3 (1 μM) in a total reaction volume of 100 μL (50 mM Tris-HCl, pH7.4) at room temperature. Fluorescence (λex=494 nm, λem=530 nm) was detected and converted into Zn^2+ concentrations using standard curves prepared from […] under identical condition. The signals of CBS at corresponding concentrations after mixing with FluoZin™-3 were recorded for background subtraction. The assay was performed in triplicate and the results were plotted as the [Zn^2+]/[PL^pro] verse [Bi^3+]/[PL^pro].

[3] = target: T2, SARS-CoV-2 M^pro (Severe acute respiratory syndrome coronavirus 2, UniProt P0DTD1); test: Ellman's assay of free cysteine; format: binding
Experimental: Amount of free cysteine was assayed spectrophotometrically with DTNB [5,5′-dithiobis-(2-nitrobenzoic acid)]according to a previously described method^(22). Briefly, SARS-CoV-2 M^pro (15 μM) was incubated with 0, 2, 5, 20 mol eq. […] Equal volume of DTNB (2 mM) was added to the reaction mix in a total reaction volume of 100 μL. After the incubation for 90 min, absorption of 412 nm which indicated the release of 5-thiobenzoate anion, was detected and converted into thiol concentrations using standard curves prepared with reduced glutathione (GSH) under identical condition. The assay was performed in triplicate and the results were plotted as the [free cysteine]/[M^pro] verse [Bi^3+]/[M^pro].

[4] = target: T2, SARS-CoV-2 M^pro; test: Bi^3+ binding to M^pro (UV-vis kinetics and titration)
[5] = target: T1, SARS-CoV-2 PL^pro; test: Bi^3+ binding to PL^pro (UV-vis kinetics and titration)
[6] = Chemical stability of bismuth drugs at different pH; conditions: data not shown; for effect of the thiol-containing drug on hydrolysis of CBS: acidic conditions
[7] = system: SARS-CoV-2; test: Viral load reduction assay in VeroE6 cells; format: cell-based
Experimental: Viral load reduction assay was performed on VeroE6 and Caco2 cells, as described previously with modifications^41. Supernatant samples from the infected cells (0.1 MOI) were harvested at 48 hours post-infection (hpi) for qRT-PCR analysis of virus replication. Briefly, 100 μL of viral supernatant were lyzed with 400 μL of AVL buffer and then extracted for total RNA with the QIAamp viral RNA mini kit (Qiagen, Hilden, Germany). Real-time one-step qRT-PCR was used for quantitation of SARS-CoV-2 viral load using the QuantiNova Probe RT-PCR kit (Qiagen) with a LightCycler 480 Real-Time PCR System (Roche) as previously described^15. Each […] mixture contained 10 μL of 2×QuantiNova Probe RT-PCR Master Mix, 1.2 μL of RNase-free water, 0.2 μL of QuantiNova Probe RT-Mix, 1.6 μL each of 10 μM forward and reverse primer, 0.4 μL of 10 μM probe, and 5 μL of extracted RNA as the template. Reactions were incubated at 45° C. for 10 min for reverse transcription, 95° C. for 5 min for denaturation, followed by 45 cycles of 95° C. for 5 s and 55° C. for 30 s. Signal detection and measurement were taken in each cycle after the annealing step. The cycling profile ended with a cooling step at 40° C. for 30 s. The primers and probe sequences are against the RNA-dependent RNA polymerase/Helicase (RdRP/Hel) gene region of SARS-Cov-2 previously described^42.
Cell culture supernatants were collected at 48 hour-post-infection (hpi) for viral RNA extraction and quantitative reverse transcription-polymerase chain reaction (qRT-PCR) as previously described with modifications(13, 14). The primers and probe sequences were against the RNA-dependent RNA polymerase/Helicase (RdRP/Hel) gene region of SARS-CoV-2: forward primer: 5′-[…]-3′ (SEQ ID NO:6); reverse primer: 5′-[…]-3′(SEQ ID NO:7); specific probe: 5′-[…]-IABkFQ-3′(SEQ ID NO:8). The viral load reduction assay experiments were performed in triplicate and repeated twice for confirmation.

[8] = target: T1, SARS-CoV-2 PL^pro; test: PL^pro activity inhibition assay (FRET); format: biochemical
[9] = target: T2, SARS-CoV-2 M^pro; test: biochemical; format: biochemical
[10] = system: SARS-CoV-2; format: cell-based; conditions: 24 h, 1000 µM
[11] = system: SARS-CoV-2; test: Golden Syrian hamster model, oral treatment (NAC studies); format: in vivo
[12] = system: Caco2 cells; test: Cell viability assay (CellTiterGlo), Caco2; format: cell-based, human; conditions: Caco-2
Experimental: as §1

[13] = system: SARS-CoV-2; format: cell-based; conditions: read-out: EC50 VeroE6
[14] = system: SARS-CoV-2; format: cell-based
[15] = system: SARS-CoV-2; conditions: 0.1 MOI, 48 hpi, non-toxic concentrations
[16] = system: pseudo-SARS-CoV-2-Luc; format: cell-based
[17] = 48 hrs incubation, concentration based on metal content, read-out: CC50 VeroE6
[18] = 0.1 MOI, 48 hpi, non-toxic concentrations

Compound: CCP(CC)CC.[Au+].[Cl-] [Au(PEt3)Cl, chloro(triethylphosphine)gold(I)]
- CC50 [1, 17]: 13.5 ± 1.8 µM

Compound: [Bi+3] [Bi^3+]
- Zn^2+ released from PL^pro [2]: ~0.78 eq.
- decrease of free cysteine in M^pro [3]: ~1 eq.
- molar ratio [Bi3+]/[SARS-CoV-2 Mpro] at plateau ([4]; absorption at 340 nm): ~1
- Kd ([4]; read-out: estimated dissociation constant (Kd), M^pro): 0.6 µM
- molar ratio [Bi3+]/[SARS-CoV-2 PL^pro] at plateau ([5]; absorption at 340 nm): ~3
- Kd ([5]; read-out: estimated dissociation constant (Kd), PL^pro): 1.13 µM

Compound: C[C@H](CS)C(=O)N1CCC[C@H]1C(=O)O [CPL, captopril]
- effect of the thiol-containing drug on hydrolysis of CBS [6]: prevent hydrolysis of CBS

Compound: N[C@@H](CCC(=O)N[C@@H](CS)C(=O)NCC(=O)O)C(=O)O [GSH, glutathione]
- effect of the thiol-containing drug on hydrolysis of CBS [6]: prevent hydrolysis of CBS

Compound: CC(=O)N[C@@H](CS)C(=O)O [NAC, N-acetyl cysteine]
- anti-SARS-CoV-2 activity in Vero E6 culture supernatant ([7]; up to 2000 μM): negligible anti-SARS-CoV-2 activity
- IC50 [8]: > 150 µM
- inhibition of PL^pro at comparable concentrations [8]: negligible inhibitory
- IC50 [9]: > 450 µM
- inhibition of M^pro at comparable concentrations [9]: negligible inhibitory
- viral NP antigen-positive cells [10]: 59.75%
- lung pathology ([11]; H&E): partially relieved lung pathology
- pulmonary viral load compared with vehicle group ([11]; oral CBS 300 mg/kg or NAC 370 mg/kg, 2 dpi): No statistically significant difference

Compound: CC(C)(S)[C@@H](N)C(=O)O [PCM, penicillamine]
- effect of the thiol-containing drug on hydrolysis of CBS [6]: prevent hydrolysis of CBS

Compound: CC[PH](CC)(CC)[Au][S][C@@H]1O[C@H](COC(C)=O)[C@@H](OC(C)=O)[C@H](OC(C)=O)[C@H]1OC(C)=O [Ridaura, Auranofin]
- CC50 [1, 17]: 14.2 ± 1.3 µM

Compound: O=C(O)c1ccccc1S [TSA, thiosalicylic acid]
- effect of the thiol-containing drug on hydrolysis of CBS [6]: prevent hydrolysis of CBS

Compound: Bi(TPP) (TPP: tetraphenylporphyrinate)
- CC50 [1]: > 400 µM
- CC50 [12]: > 400 µM
- EC50 ([13]; SARS-CoV-2 plaque reduction, concentration based on metal content): 3.9 ± 1.2 µM
- maximal viral load reduction in VeroE6 cell culture supernatant [7, 18]: ~3 logs
- maximal viral load reduction in the VeroE6 cell lysate [7, 18]: ~1 logs
- effect on virus replication, drug maintained after virus entry (post-entry) ([14]; MOI=2, viral titer at 9 hpi): functioned at post-entry stages
- maximal viral load reduction in Caco2 cell culture supernatant [15]: ~3 logs
- maximal viral load reduction in the Caco2 cell lysate [15]: ~2 logs

Compound: Bi(TPyP) (TPyP: tetra(4-pyridyl)porphyrin)
- EC50 [13]: 7.5 µM
- maximal viral load reduction in VeroE6 cell culture supernatant [7]: ~3 logs
- maximal viral load reduction in the VeroE6 cell lysate [7]: ~1 logs
- effect on virus replication, drug added during pre-incubation (cells pre-treatment) [14]: significantly suppressed virus replication
- effect on virus replication, drug added during virus co-infection [14]: significantly suppressed virus replication
- effect on virus replication, drug maintained after virus entry (post-entry) [14]: no detectable effect
- percent virus entry lowered [16]: ~53%

Compound: bismuth subgallate [BSG]
- stabilisation of the bismuth drug by NAC ([6]; low pH): stabilized
